Where “and” joins values, the source holds several entries; their conditions need not be identical. Equal entries are not always repeated. Toxic doses and inconclusive results are not listed.
System: L1210 leukemia ip in BDF1 mice, survival T/C
Test: NCI In Vivo Anticancer Drug Screen. Data for tumor model L1210 Leukemia (intraperitoneal) in B6D2F1 (BDF1) mice
Settings: endpoint: mean survival time, higher = longer survival
In short: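 Ratio derived from survival: compound-dosed mice over vehicle-dosed mice, all bearing a transplantable tumor.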

[1] = dose: 100.0 mg/kg/injection, schedule: Q04DX003 (ip), vehicle: saline with Tween-80
[2] = dose: 100.0 mg/kg/injection, schedule: Q04DX003 (ip), vehicle: saline
[3] = dose: 200.0 mg/kg/injection, schedule: Q04DX003 (ip), vehicle: saline
[4] = dose: 50.0 mg/kg/injection, schedule: Q01DX009 (ip), vehicle: saline with Tween-80
[5] = dose: 100.0 mg/kg/injection, schedule: Q01DX009 (ip), vehicle: saline with Tween-80
[6] = dose: 200.0 mg/kg/injection, schedule: Q01DX009 (ip), vehicle: saline with Tween-80
[7] = dose: 100.0 mg/kg/injection, schedule: Q01DX001 (ip), vehicle: Klucel (hydroxypropylcellulose) (HPC)
[8] = dose: 200.0 mg/kg/injection, schedule: Q01DX001 (ip), vehicle: Klucel (hydroxypropylcellulose) (HPC)
[9] = dose: 400.0 mg/kg/injection, schedule: Q01DX001 (ip), vehicle: Klucel (hydroxypropylcellulose) (HPC)
[10] = dose: 50.0 mg/kg/injection, schedule: Q01DX009 (ip), vehicle: Klucel (hydroxypropylcellulose) (HPC)
[11] = dose: 100.0 mg/kg/injection, schedule: Q04DX003 (ip), vehicle: Klucel (hydroxypropylcellulose) (HPC)
[12] = dose: 200.0 mg/kg/injection, schedule: Q04DX003 (ip), vehicle: Klucel (hydroxypropylcellulose) (HPC)
[13] = dose: 100.0 mg/kg/injection, schedule: Q01DX009 (ip), vehicle: Klucel (hydroxypropylcellulose) (HPC)
[14] = dose: 200.0 mg/kg/injection, schedule: Q01DX009 (ip), vehicle: Klucel (hydroxypropylcellulose) (HPC)
[15] = dose: 100.0 mg/kg/injection, schedule: Q04DX002 (ip), vehicle: Klucel (hydroxypropylcellulose) (HPC)
[16] = dose: 200.0 mg/kg/injection, schedule: Q04DX002 (ip), vehicle: Klucel (hydroxypropylcellulose) (HPC)
[17] = dose: 400.0 mg/kg/injection, schedule: Q04DX002 (ip), vehicle: Klucel (hydroxypropylcellulose) (HPC)
[18] = dose: 400.0 mg/kg/injection, schedule: Q01DX009 (ip), vehicle: saline with Tween-80
[19] = dose: 400.0 mg/kg/injection, schedule: Q04DX002 (ip), vehicle: saline with Tween-80
[20] = dose: 100.0 mg/kg/injection, schedule: Q01DX001 (ip), vehicle: saline
[21] = dose: 400.0 mg/kg/injection, schedule: Q04DX003 (ip), vehicle: Klucel (hydroxypropylcellulose) (HPC)
[22] = dose: 400.0 mg/kg/injection, schedule: Q01DX009 (ip), vehicle: Klucel (hydroxypropylcellulose) (HPC)
[23] = dose: 75.0 mg/kg/injection, schedule: Q01DX001 (ip), vehicle: saline

Compound: CC(C)CNC(=O)CCCc1ccc(N(CCCl)CCCl)cc1
- T/C (dose: 4.0 mg/kg/injection, schedule: Q12HX018 (ip), vehicle: other): 110 % of control
- T/C (dose: 6.0 mg/kg/injection, schedule: Q12HX018 (ip), vehicle: other): 95 % of control
- T/C (dose: 8.0 mg/kg/injection, schedule: Q12HX018 (ip), vehicle: other): 112 % of control

Compound: CCOC(=O)Cc1ccc2ccccc2c1
- T/C [1]: 100 % of control
- T/C (dose: 200.0 mg/kg/injection, schedule: Q04DX003 (ip), vehicle: saline with Tween-80): 96 % of control
- T/C (dose: 400.0 mg/kg/injection, schedule: Q04DX003 (ip), vehicle: saline with Tween-80): 104 % of control

Compound: CC1(C)N=C(N)N=C(N)N1NC(=O)c1cccc(Cl)c1
- T/C [2]: 101 % of control
- T/C [3]: 94 % of control

Compound: CCOC(=O)CN1C(=O)Cc2ccccc21
- T/C (dose: 75.0 mg/kg/injection, schedule: Q04DX002 (ip), vehicle: saline with Tween-80): 101 % of control
- T/C (dose: 150.0 mg/kg/injection, schedule: Q04DX002 (ip), vehicle: saline with Tween-80): 108 % of control
- T/C (dose: 300.0 mg/kg/injection, schedule: Q04DX002 (ip), vehicle: saline with Tween-80): 104 % of control

Compound: COC1CC2C=CC1C2 (stereo unspecified)
- T/C [4]: 92 % of control
- T/C [5]: 89 % of control
- T/C [6]: 92 % of control

Compound: Nc1c(OCCc2ccccc2)cccc1C(=O)O
- T/C [7]: 97 % of control
- T/C [8]: 96 % of control
- T/C [9]: 93 % of control

Compound: COc1nc(N)c(C#N)cc1C#N
- T/C (dose: 12.5 mg/kg/injection, schedule: Q01DX009 (ip), vehicle: Klucel (hydroxypropylcellulose) (HPC)): 96 % of control
- T/C (dose: 25.0 mg/kg/injection, schedule: Q01DX009 (ip), vehicle: Klucel (hydroxypropylcellulose) (HPC)): 102 % of control
- T/C [10]: 93 % of control
- T/C [11]: 92 % of control

Compound: CCC1CCC(Cc2ccncc2)CC1 (stereo unspecified)
- T/C [11]: 98 % of control
- T/C [12]: 92 % of control

Compound: CCCCSc1cc(C)nc(SCCCC)n1
- T/C [10]: 101 % of control
- T/C [13]: 101 % of control
- T/C [14]: 101 % of control

Compound: CCCCC(CCCCCC(CCCC)C1NC(C)Cc2cc(OC)c(OC)cc21)C1NC(C)Cc2cc(OC)c(OC)cc21 (stereo unspecified)
- T/C (dose: 25.0 mg/kg/injection, schedule: Q01DX001 (ip), vehicle: Klucel (hydroxypropylcellulose) (HPC)): 98 % of control
- T/C (dose: 50.0 mg/kg/injection, schedule: Q01DX001 (ip), vehicle: Klucel (hydroxypropylcellulose) (HPC)): 105 % of control
- T/C [7]: 90 % of control and 91 % of control

Compound: CCCCN1C(c2ccccc2)=CN(Cc2ccccc2)C=C1c1ccccc1
- T/C [15]: 106 % of control
- T/C [16]: 110 % of control
- T/C [17]: 103 % of control

Compound: C/C=C1\CN2CCC34CC5C6CC7c8c(c9ccccc9n8C)CC(C6COC5(C)OC35C2CC1C(C(=O)OC)N5c1ccccc14)N7C (stereo unspecified)
- T/C [1]: 87 % of control

Compound: O=C(C[n+]1ccccc1)N/N=C/c1ccc(Cl)cc1
- T/C (dose: 25.0 mg/kg/injection, schedule: Q01DX009 (ip), vehicle: saline with Tween-80): 98 % of control
- T/C [4]: 96 % of control
- T/C [5]: 100 % of control

Compound: O=C(CCCCCCCCC(=O)N/N=C/c1ccc(O)cc1)N/N=C/c1ccc(O)cc1
- T/C (dose: 100.0 mg/kg/injection, schedule: Q01DX001 (ip), vehicle: saline with Tween-80): 90 % of control
- T/C [5]: 89 % of control and 92 % of control
- T/C (dose: 100.0 mg/kg/injection, schedule: Q04DX002 (ip), vehicle: saline with Tween-80): 97 % of control and 100 % of control
- T/C [2]: 97 % of control
- T/C (dose: 200.0 mg/kg/injection, schedule: Q01DX001 (ip), vehicle: saline with Tween-80): 92 % of control
- T/C [6]: 100 % of control and 87 % of control
- T/C (dose: 200.0 mg/kg/injection, schedule: Q04DX002 (ip), vehicle: saline with Tween-80): 95 % of control and 97 % of control
- T/C [3]: 92 % of control
- T/C (dose: 400.0 mg/kg/injection, schedule: Q01DX001 (ip), vehicle: saline with Tween-80): 95 % of control
- T/C [18]: 101 % of control and 87 % of control
- T/C [19]: 94 % of control and 92 % of control
- T/C (dose: 400.0 mg/kg/injection, schedule: Q04DX003 (ip), vehicle: saline): 88 % of control

Compound: Fc1cc(F)c(F)c(Nc2ccccc2)c1F
- T/C (dose: 25.6 mg/kg/injection, schedule: Q04DX002 (ip), vehicle: saline with Tween-80): 113 % of control
- T/C (dose: 64.0 mg/kg/injection, schedule: Q04DX002 (ip), vehicle: saline with Tween-80): 89 % of control
- T/C (dose: 160.0 mg/kg/injection, schedule: Q04DX002 (ip), vehicle: saline with Tween-80): 95 % of control
- T/C [19]: 106 % of control

Compound: CC1C(=O)CCC2(C)CCC(C(=O)/C=C/c3ccco3)CC12 (stereo unspecified)
- T/C [7]: 100 % of control
- T/C [8]: 102 % of control
- T/C [9]: 89 % of control

Compound: O=S(=O)(c1ccccc1)C(Br)c1ccc(F)cc1 (stereo unspecified)
- T/C [15]: 97 % of control
- T/C [16]: 105 % of control
- T/C [17]: 101 % of control

Compound: CCc1ccc(C)[n+](N)c1
- T/C (dose: 50.0 mg/kg/injection, schedule: Q01DX001 (ip), vehicle: saline): 103 % of control
- T/C [20]: 109 % of control

Compound: COC(=O)c1ccc(C(=O)O)[n+]([O-])c1
- T/C [13]: 93 % of control
- T/C [11]: 97 % of control
- T/C [14]: 88 % of control
- T/C [12]: 103 % of control
- T/C [21]: 97 % of control

Compound: CC1=CC=CC(C)(Cc2ccc(-c3ccc(CC4(C)C=CC=C(C)C4=O)cc3)cc2)C1=O (stereo unspecified)
- T/C (dose: 100.0 mg/kg/injection, schedule: Q01DX001 (ip), vehicle: saline sonified): 92 % of control
- T/C (dose: 200.0 mg/kg/injection, schedule: Q01DX001 (ip), vehicle: saline sonified): 90 % of control
- T/C (dose: 400.0 mg/kg/injection, schedule: Q01DX001 (ip), vehicle: saline sonified): 95 % of control

Compound: COc1ccccc1NC(=O)Oc1c(C(C)C)cccc1C(C)C
- T/C [13]: 94 % of control
- T/C [11]: 95 % of control
- T/C [14]: 97 % of control
- T/C [12]: 102 % of control
- T/C [22]: 106 % of control
- T/C [21]: 94 % of control

Compound: COC(=O)C(N)Cc1ccc(O)c(N(CCCl)CCCl)c1 (stereo unspecified)
- T/C (dose: 0.01 mg/kg/injection, schedule: Q01DX009 (ip), vehicle: saline): 116 % of control
- T/C (dose: 0.25 mg/kg/injection, schedule: Q01DX009 (ip), vehicle: saline): 205 % of control
- T/C (dose: 0.5 mg/kg/injection, schedule: Q01DX009 (ip), vehicle: saline): 204 % of control
- T/C (dose: 1.0 mg/kg/injection, schedule: Q01DX009 (ip), vehicle: saline): 194 % of control
- T/C (dose: 2.5 mg/kg/injection, schedule: Q01DX001 (ip), vehicle: saline): 116 % of control
- T/C (dose: 5.0 mg/kg/injection, schedule: Q01DX001 (ip), vehicle: saline): 168 % of control
- T/C (dose: 10.0 mg/kg/injection, schedule: Q01DX001 (ip), vehicle: saline): 213 % of control

Compound: CN(C)CC1(C)CCc2c(ccc3ccccc23)C1O (stereo unspecified)
- T/C [7]: 94 % of control

Compound: COC(=O)/C=C\n1cnc2ccccc21
- T/C [23]: 109 % of control
- T/C (dose: 150.0 mg/kg/injection, schedule: Q01DX001 (ip), vehicle: saline): 112 % of control
- T/C (dose: 300.0 mg/kg/injection, schedule: Q01DX001 (ip), vehicle: saline): 107 % of control

Compound: O=C1O/C(=C\c2ccccc2)c2ccccc21
- T/C [20]: 101 % of control
- T/C [5]: 94 % of control
- T/C (dose: 200.0 mg/kg/injection, schedule: Q01DX001 (ip), vehicle: saline): 94 % of control
- T/C [6]: 97 % of control
- T/C (dose: 400.0 mg/kg/injection, schedule: Q01DX001 (ip), vehicle: saline): 99 % of control
- T/C [18]: 94 % of control

Compound: C/C=C/CC1(C(C)C)C(=O)NC(=S)NC1=O
- T/C [23]: 93 % of control

Compound: O=C(O)/C=C/c1cc2c(cc1[N+](=O)[O-])OCO2
- T/C [13]: 98 % of control
- T/C [11]: 86 % of control
- T/C [14]: 93 % of control
- T/C [12]: 95 % of control
- T/C [22]: 88 % of control
- T/C [21]: 100 % of control

Compound: CCCCCOC(=O)Nc1ccc(OCC)cc1
- T/C [15]: 105 % of control
- T/C [16]: 101 % of control
- T/C [17]: 105 % of control
